Experimental findings from patent publication US20110165092A1, “COSMETIC AND/OR DERMATOLOGICAL COMPOSITION” (Universite de la Mediterranee, Aix-Marseille II, priority 2008, published 2011) are described below.

One data set concerns healthy cells. The data set can be described thus: Immunohistochemistry dose- and time-response on healthy control cells. Type of data set: cell-based, human. The conditions noted are these: 100 μM pravastatin for 12 hours, 20 μM zoledronate for 6 hours, FIG. 3; for rate of prelamin A produced in treated healthy cells: in combination or singly. The procedure:
Labtech style culture wells (Nunc, Ref. 177399) are seeded, at the rate of 5×10^4 cells per well.
The complete culture medium is supplemented with the treatment or treatments (statin, NBP, both), and the cells are cultivated for the ad hoc time.
The cells are fixed in a 4% paraformaldehyde solution (in PBS) for 10 minutes at ambient temperature.
The primary antibody is diluted to 1/100th in 50 μl of incubating solution and placed in contact with the cells for 1 hour at ambient temperature in a moisture chamber.
The primary antibodies used are of 2 types: • Anti-lamin A/C mouse (N-terminal side), clone 4A7, donation from G. Morris (Oswestry, UK) • Anti-prelamin A goat (15 aa C-terminal end), product SC6214, Santa Cruz Biotechnology, Inc. • 3 rinsings of 15 min each are carried out in 50 μl of 1× PBS.
The cells are immersed in a drop of VectaShield (Vector), covered with a cover glass and observed under a fluorescence microscope (Leica DMR, Leica Microsystems), equipped with a coolSNAP camera system (Princeton).
Dose-response and time-response curves made it possible to determine maximum effectiveness by measuring 2 parameters on healthy control cells, on the one hand, and then on HGPS patient cells.

Another data set concerns Zmpste24−/− mice. Put plainly: Progeroid phenotype of Zmpste24−/− mice (Example 9). Type of data set: in vivo, mouse. The conditions noted are these: daily treatment, FIG. 15.
Another data set deals with progeria patient cells. Put plainly: Immunocytochemistry, nuclear morphology of progeria patient cells. Type of data set: cell-based, human. Particulars: abnormal nuclei 48 hours after start, FIG. 10d. The source says:
The dermal fibroblasts of a control subject (GM00038) and of patients afflicted with progeria and carriers of the G608G mutation (AG11498 and AG01972) were obtained from the Coriell Cell Repository. The HeLa cells came from the American Type Culture Collection. The cells were cultivated in DMEM (Gibco) supplemented with 10% FBS (Gibco) and 1% antibiotic-antimycotic (Gibco). The fibroblasts came from 12-day old mice tails (Varela et al., 2005). The concentration and the length of the treatment with the statin and the aminobiphosphonate are indicated in the legend to the figures. […] The percentage of abnormal nuclei was measured 48 hours after the start of the treatment. […]
The dilution of primary antibodies was 1:100 for the polyclonal goat anti-prelamin A antibody Sc-6214, Santa Cruz Biotechnologies), 1:40 for the anti-lamin A/C antibody (4A7 supplied by G. Morris), 1:200 for the anti-calreticulin rabbit antibody (Stressgen) and 1:100 for the anti-lamin B1 antibody (Abcam). […] Digital images were recorded with a Leica DMR microscope equipped with a CoolSnap camera or with a Leica TCS SP5 confocal microscope. […] More than 100 nuclei were analysed in control fibroblasts for each of the treatments. The number of cell nuclei of patients afflicted with progeria which was analysed was 250 (passage 8), 198 (passage 13) and 150 (passage 20). […]

The subject of a further data set is Zmpste24−/− cells. The data set can be described thus: Nuclear morphology of Zmpste24−/− mice cells in culture. Particulars: pravastatin 1 μM and zoledronate 1 μM, alone or in combination, FIG. 12a. Type of data set: cell-based, mouse. From the text:
(§1) The dermal fibroblasts of a control subject (GM00038) and of patients afflicted with progeria and carriers of the G608G mutation (AG11498 and AG01972) were obtained from the Coriell Cell Repository. The HeLa cells came from the American Type Culture Collection. The cells were cultivated in DMEM (Gibco) supplemented with 10% FBS (Gibco) and 1% antibiotic-antimycotic (Gibco). The fibroblasts came from 12-day old mice tails (Varela et al., 2005). The concentration and the length of the treatment with the statin and the aminobiphosphonate are indicated in the legend to the figures. During the combined treatment with statin+aminobiphosphonate in the presence of farnesol and/or geranylgeraniol, […] were added to the culture medium with increasing concentrations of farnesol and/or geranylgeraniol. The percentage of abnormal nuclei was measured 48 hours after the start of the treatment.
(§2) Quantification of the effect of pravastatin (1 μM) and zoledronate (1 μM) combined or uncombined on the nuclear morphology of Zmpste24^−/− mice (a) and control mice (b) cells in culture, in the presence of farnesol, geranylgeraniol or both molecules.

The test system of another data set is control fibroblasts. Put plainly: Nuclear morphology of control mice cells in culture. Type of data set: cell-based, mouse. The conditions noted are these: FIG. 12b.
Text: as §1, §2

The structures appear in SMILES notation.

Consider `O=P(O)(O)C(O)(Cn1ccnc1)P(=O)(O)O` [zoledronate, (1-hydroxy-2-imidazol-1-yl-1-phosphono-ethyl)phosphonic acid], for which the “rate of prelamin A produced in treated healthy cells” value in the data set with healthy cells was 15%. The “lifespan of the Zmpste24−/− mice, each drug separately” value in the data set with Zmpste24−/− mice is recorded as “does not improve the lifespan”.
For the compound `CC[C@H](C)C(=O)O[C@H]1C[C@H](O)C=C2C=C[C@H](C)[C@H](CC[C@@H](O)C[C@@H](O)CC(=O)O)[C@H]21` [pravastatin], in the data set on healthy cells, the “rate of deformed nuclei (a sign of toxicity in healthy cells)” value is reported as “approximately 12%” and the “rate of prelamin A produced in treated healthy cells” value turned out to be 25%.
`CC(C)=CCC/C(C)=C/CC/C(C)=C/CC/C(C)=C/CO` [geranylgeraniol]: the “influence on the effect of the pravastatin+zoledronate treatment on nuclear morphology” value is listed as “also blocks the effect of the treatment” with progeria patient cells and “abolish the effect of the pravastatin+zoledronate treatment on the nuclear morphology” with Zmpste24−/− cells. Moreover, the “effect on nuclear morphology of control fibroblasts” value in the data set with control fibroblasts is recorded as “Neither farnesol nor geranylgeraniol produces any effect on control fibroblasts”.
The matching figures for `CC(C)=CCCC(C)=CCCC(C)=CCO` [farnesol]: “abolishes the effect of the pravastatin+zoledronate treatment”, “abolish the effect of the pravastatin+zoledronate treatment on the nuclear morphology” and “Neither farnesol nor geranylgeraniol produces any effect on control fibroblasts”.
